The test system of the assay is 3×Tg-AD mice. Nature of the assay: Sorting Activity Test (SAT), bedding sorting score, tricyclic antidepressants. The format is in vivo, mouse. The settings on record: for mean sorting score over the course of the study: 6 cages x 7 weeks; for mean sorting score over the course of the study / mean sorting score: score 0-4; for mean sorting score: day 7 after bedding change, 6 cages, dosed once daily Mon-Fri. The source says: The 3×Tg-AD mice developed by LaFerla et al., at the University of California at Irvine (Neuron 2003b) were used in the study. These mice harbor mutations in three different genes: the β-amyloid precursor protein (APPSweKM→NL), presenilin-1 (PS1M146V) and tau (P301L). […] Intracellular A-beta peptide immunoreactivity has been reported to appear by as early as three months of age and extracellular A-beta deposits in evidence between six and 12 months of age (Oddo et al., 2003a, 2003b). In the cohort of mice used in the present studies, these hallmarks of AD were not observed until 19 months of age by immunohistochemical methods.
Triple transgenic (3×Tg-AD) mice and corresponding non-transgenic control mice were weaned and group housed four (4) mice per cage in large static microisolator caging composed of a tinted polycarbonate cage, stainless steel lid, and polycarbonate filtered top at Ace Animals, Inc. Mice were fed 5% Fat Purina Autoclavable Breeder Diet (Item #RHI5R24CGP) and provided reverse osmosis chlorinated water ad libitum within a barrier environment in an environmentally controlled facility (22° C., 40-60% relative humidity) with a 12:12-hour light: dark cycle. Health status reports certify that all animals were free of known viral, bacterial, and parasitic pathogens.
The unique factor within this colony was the use of a combination corncob and papered bedding (AlphaCobb® cat #ALPHA4B, Animal Specialties and Provisions, Quakertown, Pa.). The mice were 8 weeks of age at the start of the study.
Mice were housed 2 per cage, 6 cages per group: Non-transgenic control, untreated, 3×Tg-AD, untreated, 3×Tg-AD, Desipramine, 30 mg/kg, and 3×Tg-AD, Imipramine. All mice were approximately two months of age at the start of the study. Mice were dosed once daily, Monday through Friday with test article. Cages were photographed weekly on Day 7, and cage bedding was changed once per week after photographs were taken.
In order to quantify the sorting behavior of the mice in this study, a scoring system was devised. Before the start of the initial study the mice were observed. It was evident that the sorting behavior was not an “all or nothing” phenomenon, but rather existed in degrees. After observing the cages for some time, scoring criteria were established.
In these cages, the two types of bedding were equally mixed throughout the cage. There was no area where one bedding type was more concentrated.
In these cages, a small area of white bedding was seen, usually piled in a corner. The two types of bedding were equally mixed throughout the rest of the cage.
A score of 2 was given to cages when the white area of bedding was more pronounced, yet the bedding throughout the rest of the cage was still mixed.
A score of 3 was given to cages when the white area was very clearly defined, and very little white bedding was left mixed with the Alpha Cobb.
A score of 4 was given to cages when the two types of bedding were almost completely separated from each other.
The degree of sorting at the end of each 7 day period (before the cages were changed) was scored using this system.
Using the scoring system devised and making daily observations of the cages, the behavior patterns of the non-transgenic control mice could be clearly distinguished from the 3×Tg-AD mice within a matter of a couple days, but was most prominent after Day 3. At Day 7 before each bedding change, the bedding of each cage was digitally photographed and scored. Table 1 provides the mean score and standard deviation (SD) for each group of mice for each week observed.
Data was analyzed using GraphPad Prism software with ANOVA one-way analysis of variance followed by Dunnett's multiple comparison test. All groups (6 cages×7 weeks) were compared to untreated 3×TgAD group. Significance was defined as p<0.05.

Entries after “also recorded” stand apart in the source; their conditions may differ.

Consider `CNCCCN1c2ccccc2CCc2ccccc21` [DESIPRAMINE, Desipramine], for which the “mean sorting score over the course of the study” value was 0.67. Further, the “sorting behavior, in words” value (treated 3×Tg-AD mice compared to untreated Tg mice) is “regained some of the behavior; also recorded: greater effect than imipramine”. For the same compound, the mean sorting score (week 1) is 0.00. Also, for the setting “week 2”, the mean sorting score was 0.50. In addition, the mean sorting score (week 3) is 1.17. Further, the mean sorting score (week 4) was found to be 0.83. Where the note is “week 5”, the mean sorting score stood at 0.83. The mean sorting score (week 6) is recorded as 0.50. The mean sorting score (week 7) was 0.83.

As for `CN(C)CCCN1c2ccccc2CCc2ccccc21` [IMIPRAMINE, Imipramine], the “mean sorting score over the course of the study” value is on record as 0.31. The mean sorting score (week 1) is on record as 0.00. The mean sorting score (week 2) came to 0.67. Also, the mean sorting score (week 3) is listed as 0.17. The mean sorting score (week 4) worked out at 0.33. Under “week 5”, the mean sorting score amounted to 0.33. For the same compound, the mean sorting score (week 6) turned out to be 0.33. Moreover, the mean sorting score (week 7) was determined as 0.33.
